Assay [1] relates to IL-17A-induced G-CSF production in human normal keratinocyte (NHK). The assay can be described thus: NHK Assay: IL-17A-induced G-CSF production in human normal keratinocytes. The format is cell-based. The settings on record: Homo sapiens, Keratinocyte, 24 h, adult normal human keratinocytes, IL-17A 5 ng/mL, simple average if tested more than once. The essentials:
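Inhibition of IL-17A-driven G-CSF release is measured in adult keratinocytes stimulated for 24 h at 37° C with 5 ng/mL human IL-17A that had been pre-incubated with compound for 1 h. IC50 comes from HTRF G-CSF levels; cell viability is checked in parallel by luminescent ATP assay.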

In assay [2] the target is IL-17A(FLAG-Tagged): IL-17RA(His-Tagged) (Homo sapiens, UniProt Q16552, K93Q). The assay can be described thus: IL-17A(FLAG-Tagged): IL-17RA(His-Tagged) Binding Disruption Eu-HTRF Assay. The settings on record: IL-17A/IL-17RA binding disruption, simple average if tested more than once. The method, boiled down: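 IC50 comes from a one-site competition fit of the HTRF 665/620 nm ratio. Compound dilutions (2-fold, 22 points) were held 1 h rt with FLAG-tagged IL-17A dimer, then His-tagged IL-17RA plus Eu-cryptate anti-FLAG and D2 anti-His antibodies were added for 2 h rt.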
In general terms: In TR-FRET formats the signal depends on donor and acceptor labels being close together.

Sequence of UniProt Q16552 (Q16552 with tags, fused parts or gaps K93Q): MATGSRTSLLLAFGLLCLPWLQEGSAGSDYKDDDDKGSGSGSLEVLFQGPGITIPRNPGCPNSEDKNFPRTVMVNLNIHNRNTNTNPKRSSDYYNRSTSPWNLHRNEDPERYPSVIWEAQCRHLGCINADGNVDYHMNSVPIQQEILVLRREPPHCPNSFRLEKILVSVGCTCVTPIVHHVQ

Regarding `CC(C)n1nccc1C(=O)N[C@H](c1cn2ncc([C@H](NC(=O)COC3CC(F)(F)C3)C3CC3)cc2n1)C1CCC(F)(F)CC1` [Example 309, N—((S)-(7-((R)-Cyclopropyl(2-(3,3-difluorocyclobutoxy)acetamido)methyl)imidazo[1,2-b]pyridazin-2-yl)(4,4-difluorocyclohexyl)methyl)-1-isopropyl-1H-pyrazole-5-carboxamide], the IC50 in assay [1] worked out at 290 nM; in assay [2], 100 nM.
Regarding `Cc1nonc1C(=O)N[C@H](c1cn2ncc([C@H](NC(=O)CC(C)(C)C(F)F)C3CC3)cc2n1)C1CCC(F)(F)CC1` [Example 312, N—((S)-(7-((R)-Cyclopropyl(4,4-difluoro-3,3-dimethylbutanamido)methyl)imidazo[1,2-b]pyridazin-2-yl)(4,4-difluorocyclohexyl)methyl)-4-methyl-1,2,5-oxadiazole-3-carboxamide], the IC50 in assay [1] is 3200 nM; in assay [2] it was 370 nM.
The matching figures for `CC(C)n1nccc1C(=O)N[C@H](c1cn2ncc([C@H](NC(=O)CC(C)(C)C(F)F)C3CC3)cc2n1)C1CCC(F)(F)CC1` [Example 313, N—((S)-(7-((R)-Cyclopropyl(4,4-difluoro-3,3-dimethylbutanamido)methyl)imidazo[1,2-b]pyridazin-2-yl)(4,4-difluorocyclohexyl)methyl)-1-isopropyl-1H-pyrazole-5-carboxamide]: 480 nM and 160 nM.
For `CC(C)n1nccc1C(=O)N[C@@H](COC(C)(C)C)c1cn2ncc([C@H](NC(=O)CC3CC(F)(F)C3)C3CC3)cc2n1` [Example 318, N—((R)-2-(tert-Butoxy)-1-(7-((R)-cyclopropyl(2-(3,3-difluorocyclobutyl)acetamido)methyl)imidazo[1,2-b]pyridazin-2-yl)ethyl)-1-isopropyl-1H-pyrazole-5-carboxamide], in that order: 480 nM and 270 nM.
Turning to `CC(C)(C)OC[C@H](NC(=O)c1nonc1C1CC1)c1cn2ncc([C@H](NC(=O)CC3CC(F)(F)C3)C3CC3)cc2n1` [Example 319, N—((R)-2-(tert-Butoxy)-1-(7-((R)-cyclopropyl(2-(3,3-difluorocyclobutyl)acetamido)methyl)imidazo[1,2-b]pyridazin-2-yl)ethyl)-4-cyclopropyl-1,2,5-oxadiazole-3-carboxamide], the IC50 in assay [1] was found to be 330 nM; in assay [2], 66 nM.
The matching figures for `CC(C)n1nccc1C(=O)N[C@@H](COC(C)(C)C(F)(F)F)c1cn2ncc([C@H](NC(=O)CC3CC(F)(F)C3)C3CC3)cc2n1` [Example 320, N—((R)-1-(7-((R)-Cyclopropyl(2-(3,3-difluorocyclobutyl)acetamido)methyl)imidazo[1,2-b]pyridazin-2-yl)-2-((1,1,1-trifluoro-2-methylpropan-2-yl)oxy)ethyl)-1-isopropyl-1H-pyrazole-5-carboxamide]: 62 nM and 74 nM.
For `CC(C)(OC[C@H](NC(=O)c1nonc1C1CC1)c1cn2ncc([C@H](NC(=O)CC3CC(F)(F)C3)C3CC3)cc2n1)C(F)(F)F` [Example 321, 4-Cyclopropyl-N—((R)-1-(7-((R)-cyclopropyl(2-(3,3-difluorocyclobutyl)acetamido)methyl)imidazo[1,2-b]pyridazin-2-yl)-2-((1,1,1-trifluoro-2-methylpropan-2-yl)oxy)ethyl)-1,2,5-oxadiazole-3-carboxamide], in that order: 32 nM and 17 nM.
For `CO[C@@H](C)[C@@H](NC(=O)CC1CC(F)(F)C1)c1cnn2cc([C@@H](NC(=O)c3ccnn3C(C)C)C3CCC(F)(F)CC3)nc2c1` [Example 322, N—((S)-(7-((1S,2S)-1-(2-(3,3-Difluorocyclobutyl)acetamido)-2-methoxypropyl)imidazo[1,2-b]pyridazin-2-yl)(4,4-difluorocyclohexyl)methyl)-1-isopropyl-1H-pyrazole-5-carboxamide], in that order: 96 nM and 310 nM.
As to `CO[C@@H](C)[C@@H](NC(=O)CC1CC(F)(F)C1)c1cnn2cc([C@@H](NC(=O)c3nonc3C)C3CCC(F)(F)CC3)nc2c1` [Example 323, N—((S)-(7-((1S,2S)-1-(2-(3,3-Difluorocyclobutyl)acetamido)-2-methoxypropyl)imidazo[1,2-b]pyridazin-2-yl)(4,4-difluorocyclohexyl)methyl)-4-methyl-1,2,5-oxadiazole-3-carboxamide], the IC50 in assay [1] came to 670 nM; in assay [2], 120 nM.
For `Cc1nonc1C(=O)N[C@H](c1cn2ncc([C@H](NC(=O)CCCC(F)F)C3CC3)cc2n1)C1CCC(F)(F)CC1` [Example 326, N—((S)-(7-((R)-Cyclopropyl(5,5-difluoropentanamido)methyl)imidazo[1,2-b]pyridazin-2-yl)(4,4-difluorocyclohexyl)methyl)-4-methyl-1,2,5-oxadiazole-3-carboxamide], in that order: 1100 nM and 120 nM.
For `Cc1nonc1C(=O)N[C@H](c1cn2ncc([C@H](NC(=O)COCC(F)(F)F)C3CC3)cc2n1)C1CCC(F)(F)CC1` [Example 327, N—((S)-(7-((R)-Cyclopropyl(2-(2,2,2-trifluoroethoxy)acetamido)methyl)imidazo[1,2-b]pyridazin-2-yl)(4,4-difluorocyclohexyl)methyl)-4-methyl-1,2,5-oxadiazole-3-carboxamide], in that order: 890 nM and 200 nM.
For `Cc1nonc1C(=O)N[C@H](c1cn2ncc([C@H](NC(=O)C(C)(C)CC(F)F)C3CC3)cc2n1)C1CCC(F)(F)CC1` [Example 328, N—((S)-(7-((R)-Cyclopropyl(4,4-difluoro-2,2-dimethylbutanamido)methyl)imidazo[1,2-b]pyridazin-2-yl)(4,4-difluorocyclohexyl)methyl)-4-methyl-1,2,5-oxadiazole-3-carboxamide], in that order: > 20000 nM and 2400 nM.
Take `Cc1nonc1C(=O)N[C@H](c1cn2ncc([C@H](NC(=O)CO[C@@H](C)C(F)(F)F)C3CC3)cc2n1)C1CCC(F)(F)CC1` [Example 333, N—((S)-(7-((R)-Cyclopropyl(2-(((S)-1,1,1-trifluoropropan-2-yl)oxy)acetamido)methyl)imidazo[1,2-b]pyridazin-2-yl)(4,4-difluorocyclohexyl)methyl)-4-methyl-1,2,5-oxadiazole-3-carboxamide]: the IC50 in assay [1] amounted to 620 nM; in assay [2], 180 nM.
For `CCC(F)(F)CC(=O)N[C@@H](c1cnn2cc([C@@H](NC(=O)c3nonc3C)C3CCC(F)(F)CC3)nc2c1)C1CC1` [Example 338, N—((S)-(7-((R)-Cyclopropyl(3,3-difluoropentanamido)methyl)imidazo[1,2-b]pyridazin-2-yl)(4,4-difluorocyclohexyl)methyl)-4-methyl-1,2,5-oxadiazole-3-carboxamide], in that order: 2000 nM and 360 nM.
For `Cc1nonc1C(=O)N[C@H](c1cn2ncc([C@H](NC(=O)C(F)(F)CC3CC3)C3CC3)cc2n1)C1CCC(F)(F)CC1` [Example 339, N—((S)-(7-((R)-Cyclopropyl(3-cyclopropyl-2,2-difluoropropanamido)methyl)imidazo[1,2-b]pyridazin-2-yl)(4,4-difluorocyclohexyl)methyl)-4-methyl-1,2,5-oxadiazole-3-carboxamide], in that order: 190 nM and 77 nM.
For `Cc1nonc1C(=O)N[C@H](c1cn2ncc([C@H](NC(=O)CO[C@H](C)C(F)(F)F)C3CC3)cc2n1)C1CCC(F)(F)CC1` [Example 357, N—((S)-(7-((R)-Cyclopropyl(2-(((R)-1,1,1-trifluoropropan-2-yl)oxy)acetamido)methyl)imidazo[1,2-b]pyridazin-2-yl)(4,4-difluorocyclohexyl)methyl)-4-methyl-1,2,5-oxadiazole-3-carboxamide], in that order: 2500 nM and 950 nM.
For the molecule `Nc1nonc1C(=O)N[C@H](c1cn2ncc([C@H](NC(=O)CCC(F)(F)F)C3CC3)cc2n1)C1CCC(F)(F)CC1` [Example 370, 4-Amino-N—((S)-(7-((R)-cyclopropyl(4,4,4-trifluorobutanamido)methyl)imidazo[1,2-b]pyridazin-2-yl)(4,4-difluorocyclohexyl)methyl)-1,2,5-oxadiazole-3-carboxamide], the figures for the 50% inhibitory concentration (IC50) in assay [1] and in assay [2] were 470 nM and 140 nM, respectively.
For `CC(C)(O)c1nonc1C(=O)N[C@H](c1cn2ncc([C@H](NC(=O)CCC(F)(F)F)C3CC3)cc2n1)C1CCC(F)(F)CC1` [Example 371, N—((S)-(7-((R)-Cyclopropyl(4,4,4-trifluorobutanamido)methyl)imidazo[1,2-b]pyridazin-2-yl)(4,4-difluorocyclohexyl)methyl)-4-(2-hydroxypropan-2-yl)-1,2,5-oxadiazole-3-carboxamide], in that order: 450 nM and 140 nM.
Take `COc1conc1C(=O)N[C@H](c1cn2ncc([C@H](NC(=O)CCC(F)(F)F)C3CC3)cc2n1)C1CCC(F)(F)CC1` [Example 372, N—((S)-(7-((R)-Cyclopropyl(4,4,4-trifluorobutanamido)methyl)imidazo[1,2-b]pyridazin-2-yl)(4,4-difluorocyclohexyl)methyl)-4-methoxyisoxazole-3-carboxamide]: the 50% inhibitory concentration (IC50) in assay [1] stood at 740 nM; in assay [2], 120 nM.

As a reminder, the IC50 is the concentration that inhibits the measured activity by half. Low readings indicate inhibition by little substance, high ones a need for much substance.

Source of the values: patent US11702422B2, “Imidazopyridazines as modulators of IL-17” (Janssen Pharmaceutica NV, priority 2020, dated 2023).
